In brackets after ≈: the same amount, converted by molar mass.
Assays:
Type in all cases: cell-based
[1] = antibacterial activity (organism not stated); conditions: at levels of 250 mcg./ml.
[2] = tested on: S. lutea; test: antibacterial activity vs. S. lutea; conditions: level relative to phthalimidopenicillin
Protocol: The compound was dissolved in methylene chloride and the solution extracted with 5% sodium bicarbonate. The aqueous extract was re-acidified to pH 2.5 and re-extracted with methylene chloride.
The crystalline trans acid in methylene chloride, was shaken with 5% bicarbonate for 5 min. The aqueous phase was then separated, acidified to pH 4.5 - 5.0 and extracted with methylene chloride. It was then acidifid to pH 2.5 and extracted twice with methylene chloride and twice with chloroform.

[3] = tested on: Str. pyogenes; test: MIC, antibacterial activity; conditions: Streptococcus pyogenes; + 5% serum; 45% AAB at 10^-^3 dil'n + 50% Medium Shown
Excerpt: (§1) *45% AAB at 10^-^3 dil'n + 50% Medium Shown

[4] = tested on: D. pneumoniae; test: MIC, antibacterial activity; conditions: Streptococcus pneumoniae; + 5% serum; 45% AAB at 10^-^3 dil'n + 50% Medium Shown
Excerpt: as §1

[5] = tested on: K. pneumoniae; test: MIC, antibacterial activity; conditions: Klebsiella pneumoniae; at 10^-^4 dil'n
[6] = tested on: Ps. aeruginosa; test: MIC, antibacterial activity; conditions: Pseudomonas aeruginosa; at 10^-^4 dil'n
[7] = tested on: S. aureus BX-1633-2; test: MIC, antibacterial activity; conditions: Staphylococcus aureus
[8] = tested on: Pr. mirabilis; test: MIC, antibacterial activity; conditions: Proteus mirabilis; at 10^-^4 dil'n
[9] = tested on: Pr. morganii; test: MIC, antibacterial activity; conditions: Morganella morganii; at 10^-^4 dil'n
[10] = tested on: S. aureus Meth. Resist.; test: MIC, antibacterial activity; conditions: Staphylococcus aureus
[11] = tested on: S. aureus; test: MIC, antibacterial activity; conditions: Staphylococcus aureus
[12] = tested on: Sal. enteritidis; test: MIC, antibacterial activity; conditions: Salmonella enterica, at 10^-^4 dil'n
[13] = tested on: S. aureus Smith; test: MIC, antibacterial activity; conditions: Staphylococcus aureus
[14] = tested on: E. coli; test: MIC, antibacterial activity; conditions: Escherichia coli; at 10^-^4 dil'n
[15] = tested on: Ser. marcescens; test: MIC, antibacterial activity; conditions: Serratia marcescens; at 10^-^4 dil'n
[16] = tested on: E. coli Juhl; test: MIC, antibacterial activity; conditions: Escherichia coli; at 10^-^4 dil'n
[17] = tested on: P. morganii and Ps. aeruginosa; test: MIC of ampicillin versus resistant or β-lactamase producing bacteria, alone and with substituted azetidine-2-one; conditions: read-out: Minimum Inhibitory Concentration of ampicillin

For CC(C)=C(C(=O)O)N1C(=O)[C@H]2N=C(Cc3ccccc3)O[C@H]21 [oxazoline carboxylic acid, 2-benzyl-6-(1'-carboxy-2'-methylprop-1'-enyl)-1-oxa-3,6-diaza-4S,5R-bicyclo [3,2,0] hept-2-en-7-one], the “activity as an antibacterial agent” value [1] was “inactive”.
In the case of CC1(C)O[C@@H]2[C@H](N3C(=O)c4ccccc4C3=O)C(=O)N2[C@H]1C(=O)O [6-phthalimido oxapenicillin], the “antibacterial activity relative to phthalimidopenicillin” value [2] is reported as “one-tenth the level of phthalimidopenicillin”.
CC1(C)S[C@@H]2[C@H](NC(=O)Cc3ccccc3)C(=O)N2[C@H]1C(=O)O [Penicillin G] showed an MIC [3] of 0.004 µg/mL, an MIC [4] of 0.004 µg/mL and an MIC [5] of 2 µg/mL (≈ 5.98 µM). The MIC [6] was > 125 µg/mL, the MIC ([7]; BX16332, at 10^-^2 dil'n) was > 125 µg/mL and the MIC ([7]; BX16332, at 10^-^3 dil'n) was 125 µg/mL (≈ 374 µM). The MIC [8] was 1 µg/mL (≈ 2.99 µM), the MIC [9] was > 125 µg/mL and the MIC [10] was 125 µg/mL (≈ 374 µM). For the same molecule, the MIC ([11]; at 10^-^2 dil'n) was > 125 µg/mL, the MIC ([11]; at 10^-^3 dil'n) was 63 µg/mL (≈ 188 µM) and the MIC [12] was 0.13 µg/mL (≈ 0.389 µM). It also gave an MIC ([13]; at 10^-^4 dil'n) of 0.016 µg/mL (≈ 0.0478 µM), an MIC ([13]; at 10^-^4 dil'n + 5% serum) of 0.06 µg/mL and an MIC [14] of 125 µg/mL (≈ 374 µM). The MIC [15] was > 125 µg/mL and the MIC [16] was 32 µg/mL (≈ 95.7 µM).
Molecule CC1(C)S[C@@H]2[C@H](NC(=O)[C@H](N)c3ccccc3)C(=O)N2[C@H]1C(=O)O [ampicillin] has an MIC [17] of 500 to 1000 µg/mL.
